Data on three compounds can be found in patent US12427187B2, “Glucose-responsive insulin conjugates” (priority 2019, dated 2025).

For one test, the target named is human IR(B) (Homo sapiens, UniProt P06213). Nature of the test: Insulin receptor phosphorylation assay (MSD pIR). Format: cell-based. The settings on record: Method B: IR phosphorylation assay, 384-well with automated liquid dispense; CHO cells expressing human IR(B); IP = inflection point; read-out: IR Activation IP.
Test [1] has as its target T1, Human macrophage mannose receptor 1 (MRC1) (Homo sapiens, UniProt P22897).
T1 sequence (P22897 19-1456): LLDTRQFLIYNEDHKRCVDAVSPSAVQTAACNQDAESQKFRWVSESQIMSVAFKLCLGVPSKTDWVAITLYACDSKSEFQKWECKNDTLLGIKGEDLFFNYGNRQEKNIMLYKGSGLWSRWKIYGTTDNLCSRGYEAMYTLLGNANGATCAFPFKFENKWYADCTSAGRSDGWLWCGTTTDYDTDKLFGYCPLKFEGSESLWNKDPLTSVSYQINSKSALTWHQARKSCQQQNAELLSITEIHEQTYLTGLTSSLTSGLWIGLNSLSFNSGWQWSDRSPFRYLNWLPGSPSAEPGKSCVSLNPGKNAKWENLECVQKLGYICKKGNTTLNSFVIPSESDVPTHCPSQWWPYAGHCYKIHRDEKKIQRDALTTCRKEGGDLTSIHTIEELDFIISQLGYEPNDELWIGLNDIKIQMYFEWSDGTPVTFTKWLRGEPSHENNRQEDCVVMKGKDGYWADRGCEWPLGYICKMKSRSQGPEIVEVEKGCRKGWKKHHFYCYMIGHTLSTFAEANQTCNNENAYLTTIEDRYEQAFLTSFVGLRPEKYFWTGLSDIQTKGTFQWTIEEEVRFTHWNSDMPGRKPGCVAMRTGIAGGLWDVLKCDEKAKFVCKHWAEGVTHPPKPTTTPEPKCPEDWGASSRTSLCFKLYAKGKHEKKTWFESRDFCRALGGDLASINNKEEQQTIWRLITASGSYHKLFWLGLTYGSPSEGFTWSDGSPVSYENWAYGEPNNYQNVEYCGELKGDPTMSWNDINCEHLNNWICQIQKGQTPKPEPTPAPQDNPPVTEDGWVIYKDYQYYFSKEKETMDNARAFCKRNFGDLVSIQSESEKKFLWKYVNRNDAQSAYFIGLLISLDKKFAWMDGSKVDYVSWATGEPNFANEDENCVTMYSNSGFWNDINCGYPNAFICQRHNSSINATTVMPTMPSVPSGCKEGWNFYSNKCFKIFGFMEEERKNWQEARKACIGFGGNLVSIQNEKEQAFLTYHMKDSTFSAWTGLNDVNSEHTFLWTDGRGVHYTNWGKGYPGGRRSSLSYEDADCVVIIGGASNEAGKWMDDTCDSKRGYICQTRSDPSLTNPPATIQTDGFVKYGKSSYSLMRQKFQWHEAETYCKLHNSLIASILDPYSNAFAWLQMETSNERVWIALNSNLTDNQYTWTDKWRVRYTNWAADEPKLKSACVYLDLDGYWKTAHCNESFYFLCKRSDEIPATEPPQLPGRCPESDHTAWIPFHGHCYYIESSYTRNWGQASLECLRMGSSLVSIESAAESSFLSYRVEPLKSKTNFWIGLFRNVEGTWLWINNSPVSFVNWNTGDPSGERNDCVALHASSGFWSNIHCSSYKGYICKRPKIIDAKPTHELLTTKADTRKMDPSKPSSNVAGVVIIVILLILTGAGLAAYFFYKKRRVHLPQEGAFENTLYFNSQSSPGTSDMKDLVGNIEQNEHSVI
Nature of the test: MRC1 competition binding assay with Eu-mannosylated-BSA. The following applies: IP = inflection point, read-out: MRC1 Binding IP.

In test [2] the target is human insulin receptor type B (IR(B)) (Homo sapiens, UniProt P06213). As to the kind of experiment: IR binding assay, scintillation proximity assay on cell membranes (Method D). The settings on record: Method D: SPA IR binding assay; IP = inflection point. In general terms: Scintillation proximity formats need no separation of bound from free tracer.
Chain of human insulin receptor type B (IR(B)) (P06213 28-758 limits assumed): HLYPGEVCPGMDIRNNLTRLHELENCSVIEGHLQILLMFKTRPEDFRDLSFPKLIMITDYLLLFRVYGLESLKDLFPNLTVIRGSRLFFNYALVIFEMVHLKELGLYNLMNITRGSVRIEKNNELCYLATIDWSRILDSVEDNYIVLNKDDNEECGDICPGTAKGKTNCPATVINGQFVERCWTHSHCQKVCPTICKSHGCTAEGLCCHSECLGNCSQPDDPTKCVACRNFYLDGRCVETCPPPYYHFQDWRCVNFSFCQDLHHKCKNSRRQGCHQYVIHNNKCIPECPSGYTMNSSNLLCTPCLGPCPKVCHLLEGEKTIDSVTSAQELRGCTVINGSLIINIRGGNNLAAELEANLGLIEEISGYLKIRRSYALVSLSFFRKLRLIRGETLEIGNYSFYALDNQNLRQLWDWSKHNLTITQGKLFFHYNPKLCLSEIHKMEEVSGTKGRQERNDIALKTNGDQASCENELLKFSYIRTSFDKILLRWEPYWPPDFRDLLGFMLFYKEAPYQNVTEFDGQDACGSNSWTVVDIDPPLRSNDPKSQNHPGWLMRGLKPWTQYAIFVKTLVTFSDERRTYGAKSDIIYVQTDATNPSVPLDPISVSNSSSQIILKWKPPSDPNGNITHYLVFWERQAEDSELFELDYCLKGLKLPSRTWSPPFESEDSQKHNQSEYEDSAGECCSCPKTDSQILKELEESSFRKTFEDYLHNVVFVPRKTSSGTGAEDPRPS
Chain of human insulin receptor type B (IR(B)) (P06213 763-1382 partner limits assumed): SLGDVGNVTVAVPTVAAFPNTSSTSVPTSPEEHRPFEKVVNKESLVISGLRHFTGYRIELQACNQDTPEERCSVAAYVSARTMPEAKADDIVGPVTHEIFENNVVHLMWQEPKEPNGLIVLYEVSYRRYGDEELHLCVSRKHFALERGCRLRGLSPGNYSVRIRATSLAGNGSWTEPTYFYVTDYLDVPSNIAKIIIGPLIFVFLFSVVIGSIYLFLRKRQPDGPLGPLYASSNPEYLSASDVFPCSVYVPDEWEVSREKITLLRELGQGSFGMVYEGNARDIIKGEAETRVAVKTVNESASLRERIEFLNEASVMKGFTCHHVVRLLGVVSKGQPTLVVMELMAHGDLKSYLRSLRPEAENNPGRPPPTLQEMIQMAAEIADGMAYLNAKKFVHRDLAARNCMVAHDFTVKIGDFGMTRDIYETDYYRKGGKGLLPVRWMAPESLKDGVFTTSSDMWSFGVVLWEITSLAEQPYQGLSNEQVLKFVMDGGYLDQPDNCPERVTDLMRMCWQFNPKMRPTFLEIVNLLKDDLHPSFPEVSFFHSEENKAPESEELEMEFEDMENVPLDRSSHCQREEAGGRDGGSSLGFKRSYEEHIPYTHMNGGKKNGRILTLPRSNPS
Method: Method D: IR binding assay was run in a scintillation proximity assay (SPA) in 384-well format using cell membranes prepared from CHO cells overexpressing human IR(B) grown in F12 media containing 10% FBS and antibiotics (G418, Penicillin/Strepavidin). Cell membranes were prepared in 50 mM Tris buffer, pH 7.8 containing 5 mM MgCl2. The assay buffer contained 50 mM Tris buffer, pH 7.5, 150 mM NaCl, 1 mM CaCl2, 5mgCl2, 0.1% BSA and protease inhibitors (Complete-Mini-Roche). Cell membranes were added to WGA PVT PEI SPA beads (5 mg/mL final concentration) followed by addition of IOC molecules at appropriate concentrations.

The structures appear in SMILES notation. Where two headings read alike, the source gives them in different places.

Chain of human IR(B) (P06213 28-758 limits assumed): as the sequence (P06213 28-758 limits assumed) above
Chain of human IR(B) (P06213 763-1382 partner limits assumed): as the sequence (P06213 763-1382 partner limits assumed) above
Method for human IR(B): CHO cells stably expressing human IR(B) were in grown in F12 cell media containing 10% FBS and antibiotics (G418, Penicillin/Strepavidin) for at least 8 hr, and then serum starved by switching to F12 media containing 0.5% BSA (insulin-free) in place of FBS for overnight growth. Cells were harvested and frozen in aliquots for use in the MSD pIR assay. Briefly, the frozen cells were plated in either 96-well (40,000 cells/well, Methods A) or 384-well (10,000 cells/well, Method B) clear tissue culture plates and allowed to recover. IOC molecules at the appropriate concentrations were added and the cells incubated for 8 min at 37° C. The media was aspirated and chilled MSD cell lysis buffer was added as per MSD kit instructions. The cells were lysed on ice for 40 min and the lysate then mixed for 10 min at rt. The lysate was transferred to the MSD kit pIR detection plates. The remainder of the assay was carried out following the MSD kit recommended protocol.
The in vitro biological activities towards insulin receptor (IR) were measured by either ligand competition assays or functional phosphorylation assays, as described above, labeled as following: Method A: IR phosphorylation assay based on 96-well; Method B: IR phosphorylation assay based on 384-well with automated liquid dispense; Method C: cell-based IR binding assay; Method D: SPA IR binding assay method E; Method E: MRC1 assay was performed in a 96-well plate; Method F: MRC1 assay was performed in a 384-well plate.

Consider `CC(=O)[C@H](CCCCN)NC(=O)CCCCCNC(=O)[C@H](CCCCNC(=O)CCCCCNC(=O)CN(CC(=O)NCCO[C@H]1O[C@H](CO[C@H]2O[C@H](CO)[C@@H](O)[C@H](O)[C@@H]2O)[C@@H](O)[C@H](O[C@H]2O[C@H](CO)[C@@H](O)[C@H](O)[C@@H]2O)[C@@H]1O)CC(=O)NCCO[C@H]1O[C@H](CO[C@H]2O[C@H](CO)[C@@H](O)[C@H](O)[C@@H]2O)[C@@H](O)[C@H](O[C@H]2O[C@H](CO)[C@@H](O)[C@H](O)[C@@H]2O)[C@@H]1O)NC(=O)[C@H](CCCCNC(=O)CCCCCNC(=O)CN(CC(=O)NCCO[C@H]1O[C@H](CO[C@H]2O[C@H](CO)[C@@H](O)[C@H](O)[C@@H]2O)[C@@H](O)[C@H](O[C@H]2O[C@H](CO)[C@@H](O)[C@H](O)[C@@H]2O)[C@@H]1O)CC(=O)NCCO[C@H]1O[C@H](CO[C@H]2O[C@H](CO)[C@@H](O)[C@H](O)[C@@H]2O)[C@@H](O)[C@H](O[C@H]2O[C@H](CO)[C@@H](O)[C@H](O)[C@@H]2O)[C@@H]1O)NC(=O)CCCCCNC(=O)CN(CC(=O)NCCO[C@H]1O[C@H](CO[C@H]2O[C@H](CO)[C@@H](O)[C@H](O)[C@@H]2O)[C@@H](O)[C@H](O[C@H]2O[C@H](CO)[C@@H](O)[C@H](O)[C@@H]2O)[C@@H]1O)CC(=O)NCCO[C@H]1O[C@H](CO[C@H]2O[C@H](CO)[C@@H](O)[C@H](O)[C@@H]2O)[C@@H](O)[C@H](O[C@H]2O[C@H](CO)[C@@H](O)[C@H](O)[C@@H]2O)[C@@H]1O` [IOC-42], for which the EC50 on human IR(B) is 1.72 nM. The IC50 turned out to be 1.99 nM in test [1] (Method F: 384-well plate) and 1.95 nM in test [2].

On to `CC(=O)[C@H](CCCCN)NC(=O)CCCCCNC(=O)[C@H](CCCCNC(=O)CCCCCNC(=O)CN(CC(=O)N(CCOC1O[C@H](CO)[C@@H](O)[C@H](O)[C@@H]1O)CCOC1O[C@H](CO)[C@@H](O)[C@H](O)[C@@H]1O)CC(=O)N(CCOC1O[C@H](CO)[C@@H](O)[C@H](O)[C@@H]1O)CCOC1O[C@H](CO)[C@@H](O)[C@H](O)[C@@H]1O)NC(=O)[C@H](CCCCNC(=O)CCCCCNC(=O)CN(CC(=O)N(CCOC1O[C@H](CO)[C@@H](O)[C@H](O)[C@@H]1O)CCOC1O[C@H](CO)[C@@H](O)[C@H](O)[C@@H]1O)CC(=O)N(CCOC1O[C@H](CO)[C@@H](O)[C@H](O)[C@@H]1O)CCOC1O[C@H](CO)[C@@H](O)[C@H](O)[C@@H]1O)NC(=O)CCCCCNC(=O)CN(CC(=O)N(CCOC1O[C@H](CO)[C@@H](O)[C@H](O)[C@@H]1O)CCOC1O[C@H](CO)[C@@H](O)[C@H](O)[C@@H]1O)CC(=O)N(CCOC1O[C@H](CO)[C@@H](O)[C@H](O)[C@@H]1O)CCOC1O[C@H](CO)[C@@H](O)[C@H](O)[C@@H]1O` (stereo partly shown) [IOC-61], for which the EC50 at human IR(B) stood at 1.12 nM. Besides, the IC50 in test [1] (Method E: 96-well plate) was determined as 1.89 nM.

Turning to `CC(=O)[C@H](CCCCN)NC(=O)CCCCCNC(=O)[C@H](CCCCNC(=O)CCCC(=O)N[C@@H](CCC(=O)N(CCOC1O[C@H](CO)[C@@H](O)[C@H](O)[C@@H]1O)CCOC1O[C@H](CO)[C@@H](O)[C@H](O)[C@@H]1O)C(=O)N(CCOC1O[C@H](CO)[C@@H](O)[C@H](O)[C@@H]1O)CCOC1O[C@H](CO)[C@@H](O)[C@H](O)[C@@H]1O)NC(=O)[C@H](CCCCNC(=O)CCCC(=O)N[C@@H](CCC(=O)N(CCOC1O[C@H](CO)[C@@H](O)[C@H](O)[C@@H]1O)CCOC1O[C@H](CO)[C@@H](O)[C@H](O)[C@@H]1O)C(=O)N(CCOC1O[C@H](CO)[C@@H](O)[C@H](O)[C@@H]1O)CCOC1O[C@H](CO)[C@@H](O)[C@H](O)[C@@H]1O)NC(=O)CCCC(=O)N[C@@H](CCC(=O)N(CCOC1O[C@H](CO)[C@@H](O)[C@H](O)[C@@H]1O)CCOC1O[C@H](CO)[C@@H](O)[C@H](O)[C@@H]1O)C(=O)N(CCOC1O[C@H](CO)[C@@H](O)[C@H](O)[C@@H]1O)CCOC1O[C@H](CO)[C@@H](O)[C@H](O)[C@@H]1O` (stereo partly shown) [IOC-62], the EC50 on human IR(B) is 2.11 nM. For the same compound, the IC50 in test [1] (Method E: 96-well plate) was 11.5 nM.
